# Where two headings read alike, the source gives them in different places.
# Columns and labels:
# HEK293T cells = assay: Cytotoxicity of SM60 in HEK293T cells (CellTiter-Blue); type: cell-based; conditions: Homo sapiens, HEK-293T, 48 h, read-out: EC50 for inhibition of cell proliferation
# Procedure: HEK293T cells were seeded (2×10^4 cells/well) on a 96-well plate and grown in DMEM (supplemented with 10% heat-inactivated fetal bovine serum, 100 units/mL penicillin, 100 μg/mL streptomycin) for 48 h. Cells were then treated with DMSO (for control) or various concentrations of SM60. In a separate experiment, cells were briefly (3 min) irradiated with 365 nm UV following SM60 treatment and were allowed to grow at 37° C. for 48 h. Cell viability was measured using CellTiter-Blue® (Promega) by following the manufacturer's protocol. Equation 1,
# Y=Bottom+(Top−Bottom)/[1+10^((log EC50−X)*Hillslope)] (1),
# was used to fit a ten-point dose-response curve to determine the EC50 values for inhibition of cell-proliferation using GraphPad Prism 8.0. Top and Bottom are plateaus of the dose-response curve, X is the log of SM60-concentration, Hillslope is the slope factor or Hill slope. All the experiments were performed in triplicate.
# [1] = Photodecaging to citrulline with 365 nm UV (HPLC, LC-MS, 1H NMR); type: physicochemical; conditions: up to 5 min, PBS pH 7.4 with 2 mM DTT (SM70: 1:1 acetonitrile/PBS)
# Excerpt: FIG. 1. SM60, a photocaged-citrulline and its conversion to citrulline with 365 nm UV light. a, Conversion of peptidyl-arginine to peptidyl-citrulline by the PADs. b, Chemical structures of SM60 and SM70. c, Schematic representation of the incorporation of SM60 into proteins by an engineered LeuRS-tRNA^Leu pair and subsequent conversion to citrulline. d, Decaging of SM60 to citrulline with 365 nm UV irradiation. Left and right panels indicate the HPLC and ion chromatograms, showing the disappearance of SM60 and the formation of citrulline (Cit), respectively, with increasing UV exposure. Quantitative analyses of decaging and Cit formation are shown in the insets. Assay mixture: 1 mM SM60, 2 mM DTT, Phosphate-buffered saline pH 7.4.
# FIG. 8. ^1H NMR spectrum of SM60 in D2O after UV (365 nm) exposure for 1, 2, 3, 4 and 5 min. […] Furthermore, an upfield shift was also observed for the ‘b’ protons upon the formation of citrulline. The multiplets at 3.6-3.7 and 2.6-2.7 ppm are due to DTT used in the assay. Assay condition: 1 mM SM60, 2 mM DTT, D2O.
# FIG. 9. (A) Photodecaging of Fmoc-SM60 to produce Fmoc-Cit. (B) HPLC chromatograms indicating the disappearance of Fmoc-SM60 and the production of Fmoc-Cit with increasing UV exposure. […] Assay mixture: 0.5 mM Fmoc-SM60, 2 mM DTT, Phosphate-buffered saline pH 7.4. ESI-Mass spectra of Fmoc-SM60 (C) and Fmoc-Cit (D).
# FIG. 10. […]
# [2] = tested on: EcLeuRS-tRNACUA^EcLeu pair; assay: EGFP-39-TAG reporter expression assay in HEK293T cells; type: cell-based; conditions: EcLeuRS mutant (M40I, Y499I, Y527A, H529G, T252A)
# Excerpt: The first two pairs are restricted to structural analogs of phenylalanine and tryptophan, respectively, precluding their use to genetically encode SM60. However, both the archaeal pyrrolysyl (PylRS/tRNA^Pyl) and E. coli leucyl (EcLeuRS-tRNACUA^EcLeu) pairs have been engineered to charge UAAs structurally similar to SM60. […] This property has provided a facile route to rapidly expand the repertoire of genetically encoded UAAs without having to engineer new aaRS mutants for each distinct substrate. To explore if such a polyspecific aaRS can accept SM60 as a substrate, several existing PylRS and EcLeuRS mutants were screened using an EGFP-39-TAG expression assay in HEK293T cells in the presence of their cognate amber suppressor tRNA. […] Furthermore, UV irradiation of cells expressing EGFP-39-SM60 before lysis followed by protein purification and MS analysis afforded a single protein mass consistent with the complete deprotection and incorporation of citrulline at position 39 of EGFP (FIG. 2d).
# HEK293T cells were maintained at 37° C. in a humidified incubator supplemented with 5% CO2. […]
# EGFP fluorescence was analyzed 48 h after transfection. […] Lysate were clarified by centrifugation at 16,000×g for 10 min and 100 μL of supernatant was transferred to a clear-bottom 96-well plate for fluorescence measurement following previously described protocol. […]
smiles,measurement,setting,value
N[C@@H](CCCNC(=O)NCc1ccccc1[N+](=O)[O-])C(=O)O [SM60],EC50,HEK293T cells; SM60 alone,> 10 mM
same,EC50,HEK293T cells; combination of SM60 and 365 nm UV (3 min),4.5 ± 0.2 mM
same,photodecaging / conversion to citrulline form,[1],quantitatively converted to Cit
same,EGFP-39-TAG reporter expression,[2],robust expression of the fluorescence reporter only when SM60 was supplemented in the medium

# Reference: US20240166594A1, “PHOTOCAGED CITRULLINE ANALOGS AND METHODS FOR SITE-SPECIFIC INCORPORATION OF CITRULLINE INTO PROTEINS” (University of Massachusetts, priority 2021, published 2024)
